Reference: patent US8563714B2, “Bridged spiro [2.4] heptane derivatives as ALX receptor and/or FPRL2 agonists” (Actelion Pharmaceuticals Ltd., priority 2009, dated 2013)

Key:
[1] = biological target: T1, human FPRL2 (Homo sapiens, UniProt P25089); assay: Intracellular calcium measurements (FLIPR), agonistic activity in HEK293-hFPRL2-Gα16 cells; type: cell-based; settings: Fluo-4 calcium FLIPR, normalized to GLY14-Humanin 100 nM
T1 construct: expressed in transfected cells; host or cells: HEK293 (HEK293-hFPRL2-Gα16)
T1 sequence (P25089 1-353): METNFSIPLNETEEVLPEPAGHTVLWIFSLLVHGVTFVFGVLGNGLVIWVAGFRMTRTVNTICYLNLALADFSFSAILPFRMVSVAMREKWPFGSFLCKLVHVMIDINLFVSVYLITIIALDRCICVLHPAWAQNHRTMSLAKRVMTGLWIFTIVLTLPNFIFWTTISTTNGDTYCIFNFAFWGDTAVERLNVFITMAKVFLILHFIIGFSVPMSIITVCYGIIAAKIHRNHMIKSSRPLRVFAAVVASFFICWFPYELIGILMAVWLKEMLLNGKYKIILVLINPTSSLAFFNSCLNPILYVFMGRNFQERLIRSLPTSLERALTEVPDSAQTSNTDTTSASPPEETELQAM
Outline: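 Peak values after baseline subtraction are expressed relative to 100 nM Gly14-Humanin; compounds diluted in assay buffer from 10 mM DMSO stocks.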

[2] = biological target: T2, human ALX receptor (Homo sapiens, UniProt P25090); assay: Intracellular calcium measurements (FLIPR), agonistic activity in HEK293-hALXR-Gα16 cells; type: cell-based; settings: Fluo-4 calcium FLIPR, normalized to WKYMVm 10 nM
T2 construct: expressed in transfected cells; host or cells: HEK293 (HEK293-hALXR-Gα16)
T2 sequence (P25090 1-351): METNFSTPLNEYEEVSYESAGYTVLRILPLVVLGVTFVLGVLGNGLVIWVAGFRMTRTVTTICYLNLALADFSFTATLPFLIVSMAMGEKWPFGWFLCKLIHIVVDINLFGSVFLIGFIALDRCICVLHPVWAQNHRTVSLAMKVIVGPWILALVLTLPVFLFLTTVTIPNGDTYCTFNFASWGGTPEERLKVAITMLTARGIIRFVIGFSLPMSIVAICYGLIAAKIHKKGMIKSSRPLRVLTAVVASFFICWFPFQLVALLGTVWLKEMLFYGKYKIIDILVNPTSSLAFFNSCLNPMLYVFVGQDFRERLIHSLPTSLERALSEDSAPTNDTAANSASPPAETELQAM
Outline: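 Agonist-induced calcium flux was recorded by FLIPR (488/540 nm) in HEK293-hALXR-Gα16 cells pre-loaded with Fluo-4 AM (1 μM, 60 min, 37°C). Peak signal above baseline, after subtracting buffer addition, was expressed relative to WKYMVm at 10 nM final.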

Compound | EC50 [1] | EC50 [2]
NC(=O)CCNC(=O)[C@H]1[C@H](C(=O)Nc2ccc(Cl)nc2)[C@@H]2C=C[C@H]1C21CC1 [Example 281, (5R)—N^5-(2-Chloropyrid-5-yl)-(6R)—N^6-(3-amino-3-oxopropyl)-(4S,7R)-[4,7-ethenylene-spiro[2.4]heptane]-5,6-dicarboxamide] | > 25000 nM | 31 nM
NC(=O)CCNC(=O)[C@H]1[C@H](C(=O)NCc2ccc(Br)cc2F)[C@@H]2C=C[C@H]1C21CC1 [Example 282, (5R)—N^5-(4-Bromo-2-fluorophenyl-methyl)-(6R)—N^6-(3-amino-3-oxopropyl)-(4S,7R)-[4,7-ethenylene-spiro[2.4]heptane]-5,6-dicarboxamide] | > 25000 nM | 146 nM
NC(=O)CCNC(=O)[C@H]1[C@H](C(=O)NCc2cnc(Br)s2)[C@@H]2C=C[C@H]1C21CC1 [Example 283, (5R)—N^5-(2-Bromothiazol-5-yl-methyl)-(6R)—N^6-(3-amino-3-oxopropyl)-(4S,7R)-[4,7-ethenylene-spiro[2.4]heptane]-5,6-dicarboxamide] | > 25000 nM | 884 nM
O=C(NCCCCN1CCCC1)[C@H]1[C@H](C(=O)NCc2ccc(Br)cc2F)[C@@H]2C=C[C@H]1C21CC1 [Example 284, (5R)—N^5-(4-Bromo-2-fluorophenyl-methyl)-(6R)—N^6-(4-pyrrolidino-butyl)-(4S,7R)-[4,7-ethenylene-spiro[2.4]heptane]-5,6-dicarboxamide] | 264 nM | 13 nM
COc1ccc(NC(=O)[C@H]2[C@H](C(=O)NCCCCN3CCCC3)[C@H]3C=C[C@@H]2C32CC2)cc1 [Example 285, (5R)—N^5-(4-Methoxyphenyl)-(6R)—N^6-(4-pyrrolidino-butyl)-(4S,7R)-[4,7-ethenylene-spiro[2.4]heptane]-5,6-dicarboxamide] | 224 nM | 9 nM
O=C(NCCCCN1CCCC1)[C@H]1[C@H](C(=O)NCc2ccc(Br)cc2)[C@@H]2C=C[C@H]1C21CC1 [Example 286, (5R)—N^5-(4-Bromophenyl-methyl)-(6R)—N^6-(4-pyrrolidino-butyl)-(4S,7R)-[4,7-ethenylene-spiro[2.4]heptane]-5,6-dicarboxamide] | 32 nM | 32 nM
COc1ccc(NC(=O)[C@H]2[C@H](C(=O)NCCC(=O)O)[C@H]3C=C[C@@H]2C32CC2)cc1 [Example 287, (5R)—N^5-(4-Methoxyphenyl)-(6R)—N^6-(3-hydroxyl-3-oxopropyl)-(4S,7R)-[4,7-ethenylene-spiro[2.4]heptane]-5,6-dicarboxamide] | > 25000 nM | 516 nM
O=C(NCCCCN1CCCC1)[C@H]1[C@H](C(=O)Nc2ccc(Br)c(F)c2)[C@@H]2C=C[C@H]1C21CC1 [Example 288, (5R)—N^5-(4-Bromo-3-fluorophenyl)-(6R)—N^6-(4-pyrrolidino-butyl)-(4S,7R)-[4,7-ethenylene-spiro[2.4]heptane]-5,6-dicarboxamide] | 33 nM | 0.87 nM
O=C(NCCCCN1CCCC1)[C@H]1[C@H](C(=O)Nc2ccc(Cl)nc2)[C@@H]2C=C[C@H]1C21CC1 [Example 289, (5R)—N^5-(2-Chloro-pyridin-5-yl)-(6R)—N^6-(4-pyrrolidino-butyl)-(4S,7R)-[4,7-ethenylene-spiro[2.4]heptane]-5,6-dicarboxamide] | 214 nM | 1.6 nM
COc1ccc(NC(=O)C2C(C(=O)NCCC(N)=O)C3C=CC2C32CC2)cc1 [Example 290, (5R)—N^5-(4-Methoxyphenyl)-(6R)—N^6-(3-amino-3-oxopropyl)-(4S,7R)-[4,7-ethenylene-spiro[2.4]heptane]-5,6-dicarboxamide] | 1440 nM | 32 nM
NC(=O)CCNC(=O)[C@H]1[C@H](C(=O)NCc2ccc(Br)cc2)[C@@H]2CC[C@H]1C21CC1 [Example 291, (5R)—N^5-(4-Bromophenyl-methyl)-(6R)—N^6-(3-amino-3-oxopropyl)-(4S,7R)-[4,7-ethylene-spiro[2.4]heptane]-5,6-dicarboxamide] | > 25000 nM | 113 nM
NC(=O)CCNC(=O)[C@H]1[C@H](C(=O)NCc2ccc(Br)cc2F)[C@@H]2CC[C@H]1C21CC1 [Example 292, (5R)—N^5-(4-Bromo-2-fluorophenyl-methyl)-(6R)—N^6-(3-amino-3-oxopropyl)-(4S,7R)-[4,7-ethylene-spiro[2.4]heptane]-5,6-dicarboxamide] | 661 nM | 71 nM
COc1ccc(NC(=O)[C@H]2[C@H](C(=O)NCCC(N)=O)[C@H]3CC[C@@H]2C32CC2)cc1 [Example 293, (5R)—N^5-(4-Methoxyphenyl)-(6R)—N^6-(3-amino-3-oxopropyl)-(4S,7R)-[4,7-ethylene-spiro[2.4]heptane]-5,6-dicarboxamide] | 2370 nM | 59 nM
O=C(NCCCCN1CCCC1)[C@H]1[C@H](C(=O)Nc2ccc(Br)cn2)[C@@H]2C=C[C@H]1C21CC1 [Example 294, (5R)—N^5-(5-Bromo-pyridin-2-yl)-(6R)—N^6-(4-pyrrolidino-butyl)-(4S,7R)-[4,7-ethenylene-spiro[2.4]heptane]-5,6-dicarboxamide] | 187 nM | 2.9 nM
O=C(NCCCCN1CCCC1)[C@H]1[C@H](C(=O)Nc2ccc(Br)cc2F)[C@@H]2C=C[C@H]1C21CC1 [Example 295, (5R)—N^5-(4-Bromo-2-fluorophenyl)-(6R)—N^6-(4-pyrrolidino-butyl)-(4S,7R)-[4,7-ethenylene-spiro[2.4]heptane]-5,6-dicarboxamide] | 116 nM | 1.3 nM
Cc1cc(Br)ccc1NC(=O)[C@H]1[C@H](C(=O)NCCCCN2CCCC2)[C@H]2C=C[C@@H]1C21CC1 [Example 296, (5R)—N^5-(4-Bromo-2-methylphenyl)-(6R)—N^6-(4-pyrrolidino-butyl)-(4S,7R)-[4,7-ethenylene-spiro[2.4]heptane]-5,6-dicarboxamide] | 193 nM | 275 nM
O=C(NCCCCN1CCCC1)[C@H]1[C@H](C(=O)Nc2ccc(Br)c(Cl)c2)[C@@H]2C=C[C@H]1C21CC1 [Example 297, (5R)—N^5-(4-Bromo-3-chlorophenyl)-(6R)—N^6-(4-pyrrolidino-butyl)-(4S,7R)-[4,7-ethenylene-spiro[2.4]heptane]-5,6-dicarboxamide] | 28 nM | 367 nM
NC(=O)CCNC(=O)[C@H]1[C@H](C(=O)Nc2ccc(Cl)nc2)[C@@H]2CC[C@H]1C21CC1 [Example 298, (5R)—N^5-(2-Chloro-pyridin-5-yl)-(6R)—N^6-(3-amino-3-oxopropyl)-(4S,7R)-[4,7-ethylene-spiro[2.4]heptane]-5,6-dicarboxamide] | 4070 nM | 24 nM
O=C(NCCCCN1CCCC1)[C@H]1[C@H](C(=O)NCc2cnc(Br)s2)[C@@H]2C=C[C@H]1C21CC1 [Example 312, (5R)—N^5-(2-Bromo-thiazol-5-yl-methyl)-(6R)—N^6-(4-pyrrolidino-butyl)-(4S,7R)-[4,7-ethenylene-spiro[2.4]heptane]-5,6-dicarboxamide] | 208 nM | 213 nM
Cc1ccc(NC(=O)[C@H]2[C@H](C(=O)NCCC(N)=O)[C@H]3C=C[C@@H]2C32CC2)nc1 [Example 313, (5R)—N^5-(5-Methyl-pyridin-2-yl)-(6R)—N^6-(3-amino-3-oxopropyl)-(4S,7R)-[4,7-ethenylene-spiro[2.4]heptane]-5,6-dicarboxamide] | > 25000 nM | 330 nM
O=C(NCCCCN1CCCC1)[C@H]1[C@H](C(=O)Nc2cc(F)c(Br)cc2F)[C@@H]2C=C[C@H]1C21CC1 [Example 314, (5R)—N^5-(4-Bromo-2,5-difluorophenyl)-(6R)—N^6-(4-pyrrolidino-butyl)-(4S,7R)-[4,7-ethenylene-spiro[2.4]heptane]-5,6-dicarboxamide] | 204 nM | 103 nM
O=C(NCCCCN1CCCC1)[C@H]1[C@H](C(=O)Nc2c(F)cc(Br)cc2F)[C@@H]2C=C[C@H]1C21CC1 [Example 315, (5R)—N^5-(4-Bromo-2,6-difluorophenyl)-(6R)—N^6-(4-pyrrolidino-butyl)-(4S,7R)-[4,7-ethenylene-spiro[2.4]heptane]-5,6-dicarboxamide] | 296 nM | 9.4 nM
O=C(NCCCCN1CCCC1)[C@H]1[C@H](C(=O)Nc2ccc(Br)c(F)c2F)[C@@H]2C=C[C@H]1C21CC1 [Example 316, (5R)—N^5-(4-Bromo-2,3-difluorophenyl)-(6R)—N^6-(4-pyrrolidino-butyl)-(4S,7R)-[4,7-ethenylene-spiro[2.4]heptane]-5,6-dicarboxamide] | 122 nM | 236 nM
